Experimental findings from patent publication US20220117945A1, “ISOXAZOLE CARBOXAMIDE COMPOUNDS AND USES THEREOF” (NOVARTIS AG, priority 2017, published 2022) are described below.

Assay [1] concerns 6-day-postnatal mouse cochlea explants with hair cell damage. Description: Ex vivo hair cell induction assay using 6-day-postnatal mouse cochlea explants with hair cell damage. It is filed as cell-based. The conditions noted are these: P6 Atoh1-GFP mouse cochlea explants, neomycin-damaged; 3 to 10 μM compound for 8 days, then 4 days blank medium; mean ± SD; DMSO = 0%; more than 20% considered significant. As for the experimental part:
Compounds of the present disclosure were assessed for their ability to increase the Atoh1 expression in mouse cerebellar neural precursor cells. The ability of compounds of the present disclosure to induce new hair cell formation was assessed in ex vivo hair cell induction assay using 6-day-postnatal mouse cochlea explants with hair cell damage.
Ex Vivo Hair Cell Induction Assay Using 6-Day-Postnatal Mouse Cochlea Explants with Hair Cell Damage
P6, postnatal 6 days, Atoh1-GFP mice, the same mouse strain used for Atoh1 induction assay described before, were used in this assay. The otic capsule was exposed and the cochleae were micro-dissected. […] and in vitro cultured in serum free medium (culture medium: DMEM/F12+1% N2+2% B27+5 μg/ml ampicillin) at 37° C. under a standard gas atmosphere of humidified air/5% CO2. Inner ear hair cells were damaged by 1 mM Neomycin treatment for 1.25 h. After the neomycin treatment, explants were cultured in blank culture medium for 7 days before the treatment of selected compounds.
For compound administration, the cochlea explants were treated with 3 to 10 μM compound of the present disclosure, with DMSO as the negative control for 8 days with once compound/medium change. After 8 days treatment, the tested compound was removed. The explants were cultured in blank medium for additional 4 days. The cochlea explant cultures then were fixed with 4% w/v formalin and processed for Myo7a immunofluorescence (Myo7a is a specific marker for sensory hair cell) using the rabbit anti-Myo7a antibody (Protus Biosci #25-6790, 1:250 diluted in PBS containing 3% BSA). Rhodamine labeled Goat-anti-rabbit IgG (Molecular Prob. #R6394, 1:1000 diluted in PBS containing 3% BSA) was used as the secondary antibody to visualize the Myo7a positive cells. The images were collected and analyzed using the EVOS image system (Thermo-Fisher Scientific). […] The hair cell identity of the ectopically formed cells was confirmed by staining the cells with multiple hair cell markers.
The efficacy of hair cells induction in this assay is represented by the responsive length percentage of Atoh1 and Myo7a double positive cells in the damaged whole explants after compound treatment. The responsive length percentage was calculated according to the equation of ((the explant length with Atoh1 and Myo7a double positive cells/the full length of cochlea explant)*100%). Note the value of DMSO control is 0% due to total damage of hair cells, and any responsive length percentage more than 20% is considered as significant hair cell induction.

Assay [2] has as its system Atoh1 expression in mouse cerebellar neural precursor cells. Description: Atoh1 induction assay in mouse cerebellar neural precursor cells (NPCs), Atoh1-GFP reporter. Format: cell-based. As to conditions: 10 doses 50 μM to 200 nM, 72 hours treatment, DMSO control = 1, more than 5 considered significant, read-out: fold difference (maximum fold difference of GFP average intensity in cell nuclei over the DMSO control). The method, boiled down: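 Neural precursors from postnatal day 3 transgenic Atoh1-GFP mouse cerebellum were expanded and banked, then seeded on matrigel at 2500 cells/well. Cells were treated 72 h with 10-point 1:2 dilutions (50 μM to 200 nM); DMSO served as negative control. Fixed cells were anti-GFP stained and read by high-content imaging.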

On to `O=C(NCCCCCN1CC[C@H](F)C1)c1cc(-c2cccs2)on1` [Example 45, (S)—N-(5-(3-fluoropyrrolidin-1-yl)pentyl)-5-(thiophen-2-yl)isoxazole-3-carboxamide], for which the “Responsive length % (explant length with Atoh1 and Myo7a double positive cells / full length of cochlea explant)” value in assay [1] was found to be 51.9 ± 14.9%. Also, the maximal fold induction in assay [2] was 24.

On to `CN1C2CCC1CN(CCCCCNC(=O)c1cc(-c3cccs3)on1)C2` [Example 12, N-(5-(8-Methyl-3,8-diazabicyclo[3.2.1]octan-3-yl)pentyl)-5-(thiophen-2-yl)isoxazole-3-carboxamide], for which the “Responsive length % (explant length with Atoh1 and Myo7a double positive cells / full length of cochlea explant)” value in assay [1] is 39.7 ± 8.2%. Besides, the maximal fold induction in assay [2] worked out at 21.1.

For the compound `O=C(NCCCCCN1CCC(F)CC1)c1cc(-c2cccs2)on1` [Example 53], the “Responsive length % (explant length with Atoh1 and Myo7a double positive cells / full length of cochlea explant)” value in assay [1] is listed as 34.7 ± 9.8%. The maximal fold induction in assay [2] was determined as 22.9.

Turning to `O=C(NCCCCCN1CC(O)C1)c1cc(-c2ccc(F)cc2)on1` [Example 67], the “Responsive length % (explant length with Atoh1 and Myo7a double positive cells / full length of cochlea explant)” value in assay [1] turned out to be 58.2 ± 3.5%. Also, the maximal fold induction in assay [2] came out at 18.9.

With `O=C(NCCCCCN1CC2CCC(C1)N2)c1cc(-c2cccs2)on1` [Example 11, N-(5-(3,8-Diazabicyclo[3.2.1]octan-3-yl)pentyl)-5-(thiophen-2-yl)isoxazole-3-carboxamide], in assay [1], the “Responsive length % (explant length with Atoh1 and Myo7a double positive cells / full length of cochlea explant)” value amounted to 51.7 ± 8.1%. In assay [2], the maximal fold induction amounted to 12.4.

For the compound `COC1CN(CCCCCNC(=O)c2cc(-c3cccs3)on2)C1` [Example 47], the “Responsive length % (explant length with Atoh1 and Myo7a double positive cells / full length of cochlea explant)” value in assay [1] worked out at 64.4 ± 17.2%. In addition, the maximal fold induction in assay [2] was 27.8.

Turning to `CC(=O)N1CCN(CCCCCNC(=O)c2cc(-c3cccs3)on2)CC1` [Example 40], the “Responsive length % (explant length with Atoh1 and Myo7a double positive cells / full length of cochlea explant)” value in assay [1] was found to be 36.9 ± 7.4%. Moreover, the maximal fold induction in assay [2] was determined as 21.5.

With `NC(=O)C1CN(CCCCCNC(=O)c2cc(-c3ccc(F)cc3)on2)C1` [Example 65, N-(5-(3-carbamoylazetidin-1-yl)pentyl)-5-(4-fluorophenyl)isoxazole-3-carboxamide], the “Responsive length % (explant length with Atoh1 and Myo7a double positive cells / full length of cochlea explant)” value in assay [1] came to 43.1 ± 7.6%. Further, the maximal fold induction in assay [2] was determined as 29.8.

On to `O=C(NCCCCCN1CC[C@H](O)C1)c1cc(-c2cccs2)on1` [Example 36], for which, in assay [1], the “Responsive length % (explant length with Atoh1 and Myo7a double positive cells / full length of cochlea explant)” value was found to be 28.1 ± 6.3%. Also, the maximal fold induction in assay [2] amounted to 15.7.

In the case of `CN1CCN(CCCCCNC(=O)c2cc(-c3cccs3)on2)CC1` [Example 8, N-(5-(4-Methylpiperazin-1-yl)pentyl)-5-(thiophen-2-yl)isoxazole-3-carboxamide], in assay [1], the “Responsive length % (explant length with Atoh1 and Myo7a double positive cells / full length of cochlea explant)” value is given as 54.0 ± 6.3%. For the same compound, the maximal fold induction in assay [2] was 30.9.

Turning to `COC(=O)NC1CN(CCCCCNC(=O)c2cc(-c3cccs3)on2)C1` [Example 17, Methyl (1-(5-(5-(thiophen-2-yl)isoxazole-3-carboxamido)pentyl)azetidin-3-yl)carbamate], the “Responsive length % (explant length with Atoh1 and Myo7a double positive cells / full length of cochlea explant)” value in assay [1] was found to be 52.9 ± 6.8%. Besides, in assay [2], the maximal fold induction was 34.6.
